For one test, the system named is untreated iOPCs. The experiment in a line: Baseline Ki67 expression in untreated iOPCs (normal UBE3A levels). The settings on record: 10 μM, 24 hours. The test is classed as cell-based, human. The source says:
FIG. 19A: Schematic illustrating the process of generating iPSC-derived oligodendrocyte lineage cells using a refined protocol from Vulakh and Yang, […] (Vulakh, G., and Yang, X. (2023). Characterizing the Neuron-Glial Interactions by the Co-cultures of Human iPSC-Derived Oligodendroglia and Neurons. Methods Mol. Biol. 2683. 10.1007/978-1-0716-3287-1_9). The human iPSCs employed in this study were the extensively characterized KOLF2.J1 control reference line, sourced from the INDI (Ramos, D. M., Skarnes, W. C., Singleton, A. B., Cookson, M. R., and Ward, M. E. (2021). Tackling neurodegenerative diseases with genomic engineering: A new stem cell initiative from the NIH. Neuron 109, 1080-1083. 10.1016/j.neuron.2021.03.022). Initially, iPSCs are converted into neural precursor cells (iNPCs, marked by Nestin) through SMAD inhibition in the first week. These iNPCs are then induced into oligodendrocyte precursor cells (iOPCs, marked by PDGFRa and A2B5) by the second week. […] FIG. 19H: Baseline effects of AC-186 on OPC proliferation analyzed by Ki67 expression in untreated iOPCs exposed to vehicle or drugs (AC-186 or DPN; 10 μM, 24 hours), with densitometric signals of immunoblotting normalized to GAPDH. […]

The test system of test [1] is Angelman syndrome (AS) mice. The test is described as follows: Accelerating Rotarod test in AS mice. Particulars: 10 mg/kg daily IP, days 1-3, vs AS vehicle. Type of test: in vivo, mouse. The procedure:
(§1) Animal handling and experimental use strictly followed NIH guidelines and protocols approved by the local Institutional Animal Care and Use Committee (IACUC) of Brown University. In all experiments, Mice were age and gender-matched. Multiple liters were used for all experiments. Weaned mice, housed in groups of two to four per cage, were maintained on a 12-h light/dark cycle with food and water ad libitum.
(§2) ESRβ agonist AC-186 treatment in vivo. 10 mg/kg AC-186 was daily IP delivered after dissolved at high concentration (30 mg/ml) in DMSO and further diluted in 20% PEG300. Vehicle groups received the same volume and concentration of diluted DMSO in 20% PEG300. Treatment started at P13 and continued until mice were sacrificed at P42.
This involved conducting two trials per day for three consecutive days, with a 20-minute rest interval between trials. During each trial, mice were placed on a rod that accelerated from 4 to 40 RPM over a five-minute period, and the time until each mouse fell was recorded. The average duration before falling was tracked and graphed across the three-day span.

In test [2] the test system is Angelman syndrome (AS) mice. The experiment in a line: Fear conditioning test in AS mice. Type of test: in vivo, mouse. As to the method: as §1, §2
For evaluating hippocampus-dependent memory, the protocol described in Lau and Yang, et al., 2023 for the fear conditioning test was followed. Mice were placed in an electrified and sound-attenuated chamber (Coulbourn Instruments, Allentown, PA) which was exposed to a scent (0.1% coconut) diluted in ethanol (70%) on day 1. Mice were habituated to the chamber for 3 min before undergoing three conditioning trials: a tone (5 kHz, 70 dB, 30 s) co-terminating with a foot shock (0.7 mA, 1 s). Conditioning trials were separated by a 30-second interval. Following conditioning, mice rested inside the chamber for 1.5 min before returning to their home cage. […]

“Also recorded” adds a separate entry of the source.

On to `N#CC(Cc1ccc(O)cc1)c1ccc(O)cc1` (centres unmarked) [DPN, diarylpropionitrile, reference compound], for which the “Ki67 expression, baseline” value in the test on untreated iOPCs is “neither AC-186 nor DPN affected; also recorded: No significant changes”.

Consider `Oc1ccc(C2(c3ccccc3F)CCC(F)(F)CC2)cc1` [AC-186], for which the “Ki67 expression, baseline” value with untreated iOPCs is given as “neither AC-186 nor DPN affected; also recorded: No significant changes”. The “Rotarod time to fall” value in test [1] is given as “significant improvements; also recorded: increased”. Besides, the “Contextual fear conditioning, percentage of time spent freezing” value in test [2] (AS mice, 10 mg/kg daily IP, vs AS vehicle, 10 mg/kg) is reported as “ameliorated; also recorded: increased”. The cued fear conditioning entry in test [2] (all four groups) is given as “no intergroup differences”.

For the origin of these results see patent US20250032425A1, “FIRST IN CLASS USE OF ESTROGEN RECEPTOR BETA AGONISTS IN TREATING ANGELMAN SYNDROME AND RELEVANT AUTISM SPECTRUM DISORDERS” (BROWN UNIVERSITY, priority 2023, published 2025).
